According to US9932300B2, “N,N′-diarylurea compounds and N,N′-diarylthiourea compounds as inhibitors of translation initiation” (President and Fellows of Harvard College, priority 2009, dated 2018):

Test system: eIF2-GTP-Met-tRNAi ternary complex
Assay: Ternary complex assay (dual luciferase, firefly/renilla ratio) in stable KLN-tTA/pBISA-DL(ATF-4) cells; HTS and hit confirmation
Format: cell-based, mouse
Set-up: Activity 10 uM / Activity 2.5 uM / Activity 5 uM: unit not given here
Conditions: confirmed hits of the screen (Table 5); for Activity 2.5 uM: compound at 2.5 uM; for Activity 10 uM: compound at 10 uM; for Activity 5 uM: compound at 5 uM

## CNC(=S)N/N=C/c1nccc(-c2ccccc2)c1C [Compound 262421]
  Activity 2.5 uM: 24.56
  Activity 10 uM: 107.79

## CCCCCCCCCCCCCCCC[N+](C)(C)Cc1ccccc1.[Br-] [Compound 263517]
  Activity 2.5 uM: 1.39
  Activity 10 uM: 8.78

## CC(=O)OCC1OC(n2nnc(CCl)c2CCl)C(OC(C)=O)C(OC(C)=O)C1OC(C)=O (stereo not drawn) [Compound 268393]
  Activity 2.5 uM: 0.71

## CN(C)c1ccc(/C=C/c2ccc3ccccc3[n+]2[O-])cc1 [Compound 268776]
  Activity 5 uM: 5.767
  Activity 10 uM: 5.5035

## Cc1cc(OC(=O)Nc2ccc(Cl)c([N+](=O)[O-])c2)c(Cl)cc1Br [Compound 270151]
  Activity 2.5 uM: 1.24
  Activity 10 uM: 3.16

## COc1cc2c(cc1O)C(=O)c1[nH]c3ccccc3c1CC2 [Compound 271272]
  Activity 2.5 uM: 2.76
  Activity 10 uM: 4.93

## O=C(OCC1OC(n2cc[n+]([O-])nc2=O)C(OC(=O)c2ccccc2)C1OC(=O)c1ccccc1)c1ccccc1 (stereo not drawn) [Compound 276293]
  Activity 2.5 uM: 20.35

## O=C(Nc1ncc([N+](=O)[O-])s1)c1cccnc1 [Compound 276393]
  Activity 5 uM: 6.644
  Activity 10 uM: 8.706

## CCOC(=O)[C]1([Hg][CH3])N=NC(C(=O)OC)=C1C(=O)OC (stereo not drawn) [Compound 278352]
  Activity 2.5 uM: 3.81

## Cc1ccc(S(=O)(=O)C(c2ccccc2)C(Br)C(=O)c2ccccc2)cc1 (stereo not drawn) [Compound 280894]
  Activity 2.5 uM: 2.06

## O=C1c2ccccc2C(=O)c2c1oc1c2ccc2ccccc21 [Compound 281986]
  Activity 2.5 uM: 3.11
  Activity 10 uM: 3.37

## Br[CH](Br)[Hg][c]1ccccc1 [Compound 286678]
  Activity 2.5 uM: 1.72

## CCCCC(OC(=O)c1ccccc1)c1cc(OC(=O)c2ccccc2)c2c(c1OC(=O)c1ccccc1)CC(C)=C(C)C2 (stereo not drawn) [Compound 287407]
  Activity 2.5 uM: 3.93
  Activity 10 uM: 36.2

## CC1=C(C)CC2C(=O)C(C(O)CC(C)C)=CC(=O)C2C1 (stereo not drawn) [Compound 287413]
  Activity 2.5 uM: 0.68
  Activity 10 uM: 17.06

## CCN1/C(=C/C=C2\CCC(/C=C/c3sc4ccc(Cl)cc4[n+]3CC)=C2N(c2ccccc2)c2ccccc2)Sc2ccc(Cl)cc21.[O-][Cl+3]([O-])([O-])[O-] [Compound 290436]
  Activity 5 uM: 3.8
  Activity 10 uM: 20.4

## CCC[CH2][Sn]1([CH2]CCC)[O]C2C(CO)OC(n3c(Br)c(C#N)c4c(N)ncnc43)C2[O]1 (stereo not drawn) [Compound 291104]
  Activity 2.5 uM: 1.4
  Activity 10 uM: 3.83

## c1ccc2c(c1)cnc1c3ccccc3nn21 [Compound 292587]
  Activity 5 uM: 2.577
  Activity 10 uM: 3.294

## CN(C)c1cc(=O)c2c(ccc3ccccc32)o1 [Compound 292795]
  Activity 5 uM: 3.69
  Activity 10 uM: 4.66

## CCN(C)c1cc(=O)c2c(ccc3ccccc32)o1 [Compound 292796]
  Activity 5 uM: 4.759
  Activity 10 uM: 5.6

## S=C(N=Nc1ccccc1)N[N-]c1ccccc1.S=C(N=Nc1ccccc1)N[N-]c1ccccc1.[Zn+2] [Compound 293939]
  Activity 2.5 uM: 1.54
  Activity 10 uM: 7.78

## CCOC(=C\C=C\C1=[N+](C)c2ccccc2C1(C)C)/C=C/C=C1/N(C)c2ccccc2C1(C)C.F[B-](F)(F)F [Compound 295477]
  Activity 2.5 uM: 6.24
  Activity 10 uM: 9.07

## CCCCCCCCCCCCCCCC[N+](C)(C)CCOC(C)=O.O=S(=O)([O-])C(F)(F)F [Compound 297153]
  Activity 2.5 uM: 0.95
  Activity 10 uM: 4.39

## CCCCCCCCCCCCCCCC[N+](C)(C)CCN=[N+]=[N-].O=S(=O)([O-])C(F)(F)F [Compound 297154]
  Activity 2.5 uM: 1.24
  Activity 10 uM: 5.62

## Br.CCCCCCCCCCCCCCCC[N+](C)(C)CCN.[Br-] [Compound 297156]
  Activity 2.5 uM: 1.08
  Activity 10 uM: 5.15

## CCCCC(Oc1cc(C(C)(C)C)c(O)c(C(C)(C)C)c1)C(=O)O (stereo not drawn) [Compound 297621]
  Activity 2.5 uM: 18.95

## O=C(NC(=O)c1c(F)cccc1F)Nc1nc2ccccc2s1 [Compound 298153]
  Activity 2.5 uM: 3.67
  Activity 10 uM: 3.43

## c1ccc(-c2ccc(-c3csnn3)cc2)cc1 [Compound 298243]
  Activity 5 uM: 2.747
  Activity 10 uM: 3.327

## CN(C)c1ccc(N=Nc2ccc3c4c(cccc24)-c2ccccc2-3)cc1 [Compound 299107]
  Activity 2.5 uM: 8.13
  Activity 10 uM: 279.99

## [Pd].[Pd].[S-]CC[S-].[S-]CC[S-].c1ccc([PH+](c2ccccc2)c2ccccc2)cc1.c1ccc([PH+](c2ccccc2)c2ccccc2)cc1 [Compound 300554]
  Activity 2.5 uM: 0.48
  Activity 10 uM: 8.96

## CC(C)[S-].CC(C)[S-].[Pt+2].c1ccc([PH+](c2ccccc2)c2ccccc2)cc1.c1ccc([PH+](c2ccccc2)c2ccccc2)cc1 [Compound 300559]
  Activity 2.5 uM: 0.71
  Activity 10 uM: 4.71

## Cc1ccc(NC(=O)c2cc3ccccc3cc2O)c(C)c1.Cc1ccc(NC(=O)c2cc3ccccc3cc2O)c(C)c1.[Mn+2] [Compound 306697]
  Activity 2.5 uM: 1.77
  Activity 10 uM: 19.5

## FC(F)(F)c1cc(NC2=NCCN=C(Nc3cc(C(F)(F)F)cc(C(F)(F)F)c3)SS2)cc(C(F)(F)F)c1 [Compound 309898]
  Activity 2.5 uM: 1.07
  Activity 10 uM: 13.68

## C[N+]1=C(/C=C/Nc2cc3c4ccccc4ccc3c3ccccc23)C(C)(C)c2ccccc21.[Cl-] [Compound 313162]
  Activity 2.5 uM: 1.07
  Activity 10 uM: 4.03

## CN(C)Cc1[c-]c(CN(C)C)ccc1.[Br][Pt] [Compound 315819]
  Activity 2.5 uM: 2.12
  Activity 10 uM: 13.17

## Clc1cc[c]([Sb]2([c]3ccc(Cl)cc3)([c]3ccc(Cl)cc3)[O]C(C(Cl)(Cl)Cl)[O]2)cc1 (stereo not drawn) [Compound 316746]
  Activity 2.5 uM: 0.88
  Activity 10 uM: 6.11

## [C-]#[O+].[C-]#[O+].[C-]#[O+].[CH3][Sn]([c]1ccccc1)[c]1ccccc1.[Co].c1ccc([PH+](c2ccccc2)c2ccccc2)cc1 [Compound 319697]
  Activity 2.5 uM: 3.1

## [C-]#[O+].[C-]#[O+].[C-]#[O+].[C-]#[O+].[C-]#[O+].[CH3][Sn]([Cl])[c]1ccccc1.[Mn] [Compound 319699]
  Activity 2.5 uM: 0.29
  Activity 10 uM: 3.62

## S=c1nccc[nH]1.[Pd] [Compound 321197]
  Activity 5 uM: 5.014
  Activity 10 uM: 5.0845

## S=c1nccc[nH]1.[Pt] [Compound 321198]
  Activity 5 uM: 8.313
  Activity 10 uM: 9.062

## COc1ccc(CCN2C(=O)C(=O)N(c3ccc(Cl)c(Cl)c3)C2=O)cc1OC [Compound 323938]
  Activity 2.5 uM: 0.99
  Activity 10 uM: 5.53

## CCCCCC(CN(C)C)C(=O)CC(SCC)c1ccc(Cl)c(Cl)c1 (stereo not drawn) [Compound 326123]
  Activity 2.5 uM: 0.47
  Activity 10 uM: 12.9

## c1ccc(Nc2nnc(-c3ccc4c(c3)OCO4)o2)cc1 [Compound 326181]
  Activity 5 uM: 5.584
  Activity 10 uM: 7.027

## CSC(=Nc1nc2ccc([N+](=O)[O-])cc2s1)SC [Compound 327371]
  Activity 5 uM: 13.29
  Activity 10 uM: 22.247

## O=[N+]([O-])c1cccnc1S(=O)(=O)c1ccccn1 [Compound 327414]
  Activity 5 uM: 3.793
  Activity 10 uM: 6.977

## CN(C)c1ccc(NC(=O)c2ccccc2O)cc1 [Compound 328479]
  Activity 5 uM: 7.502
  Activity 10 uM: 7.342

## Cc1cccc(/C=N/Nc2ccc3ccccc3n2)n1 [Compound 332423]
  Activity 5 uM: 4.287
  Activity 10 uM: 5.4265

## Cc1cccc(/C=N/Nc2cc(C)c3ccccc3n2)n1 [Compound 332426]
  Activity 2.5 uM: 2.37
  Activity 10 uM: 3.15

## C/C(=N\NC(=S)N1CCSCC1)c1ccccn1 [Compound 332543]
  Activity 5 uM: 4.083
  Activity 10 uM: 5.182

## O=C1C(Cl)=C(Nc2nccs2)C(=O)c2ccccc21 [Compound 337757]
  Activity 5 uM: 6.205
  Activity 10 uM: 5.978

## N#C/C(=C/C=C/c1ccccc1)c1ccccc1 [Compound 338119]
  Activity 5 uM: 3.435
  Activity 10 uM: 5.6885

## Cc1ccc(/C=C/c2ccc([N+](=O)[O-])cc2)cc1 [Compound 338462]
  Activity 5 uM: 4.54
  Activity 10 uM: 6.4125

## COc1ccc2c(Cc3ccccc3)c3[n+](cc2c1OC)CCc1cc2c(cc1-3)OCO2.[Br-] [Compound 338631]
  Activity 2.5 uM: 1.12
  Activity 10 uM: 3.39

## O=C(CC(c1cccnc1)C(C(=O)c1ccc(Cl)cc1)C(CC(=O)c1ccc(Cl)cc1)c1cccnc1)c1ccc(Cl)cc1 (stereo not drawn) [Compound 339119]
  Activity 2.5 uM: 1.01
  Activity 10 uM: 4.42

## C1=C(c2ccccc2)OC(c2ccccc2)=C(c2ccccc2)[P+]1(c1ccccc1)c1ccccc1.[Br-] [Compound 339567]
  Activity 2.5 uM: 1.94
  Activity 10 uM: 11.94

## Cc1ccc(Sc2ccc3ccccc3n2)cc1 [Compound 340215]
  Activity 2.5 uM: 2.4
  Activity 10 uM: 3.11

## CN1/C(=C/C=C/C=C/C2=[N+](C)c3ccccc3C2(C)C)C(C)(C)c2ccccc21.[I-] [Compound 340302]
  Activity 2.5 uM: 3.29
  Activity 10 uM: 4.54

## COc1ccc(N=C(C)C2C(=O)c3ccccc3C2=O)cc1 [Compound 343385]
  Activity 5 uM: 11.2
  Activity 10 uM: 8.3265

## CC(=Nc1ccc(F)cc1)C1C(=O)c2ccccc2C1=O [Compound 343386]
  Activity 5 uM: 4.235
  Activity 10 uM: 5.4775

## COc1cccc(N=C(C)C2C(=O)c3ccccc3C2=O)c1 [Compound 343387]
  Activity 2.5 uM: 2.32
  Activity 10 uM: 3.33

## O=C(NCC(=O)N1CCCC1)N/N=C/c1ccccc1O [Compound 343979]
  Activity 5 uM: 2.571
  Activity 10 uM: 3.1255

## CC(C)[N+](=C1O[B-](c2ccccc2)(c2ccccc2)O[B-]1(c1ccccc1)[C+]1CCCCC1)C(C)C (stereo not drawn) [Compound 344506]
  Activity 2.5 uM: 0.69
  Activity 10 uM: 5.08

## Cc1nc2cc3c(cc2n2cccc12)oc1ccccc13 [Compound 346212]
  Activity 5 uM: 5.376
  Activity 10 uM: 5.7595
